Assay results reported in PubChem BioAssay (NCI).
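48-hour exposure; five concentrations; linearly interpolated endpoints. Here, GI50 denotes the concentration required for 50% inhibition of growth. TGI marks complete inhibition of growth.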

How the values were obtained:
Assay in all cases: NCI-60 cell line screen, 48 h
786-0 renal = system: 786-0 renal
A498 renal = system: A498 renal
A549 NSCLC = system: A549 NSCLC
ACHN renal = system: ACHN renal
BT-549 breast = system: BT-549 breast
CAKI-1 renal = system: CAKI-1 renal
CCRF-CEM leukemia = system: CCRF-CEM leukemia
COLO 205 colon = system: COLO 205 colon
DU-145 prostate = system: DU-145 prostate
HCC-2998 colon = system: HCC-2998 colon
HCT-116 colon = system: HCT-116 colon
HCT-15 colon = system: HCT-15 colon
HOP-62 NSCLC = system: HOP-62 NSCLC
HOP-92 NSCLC = system: HOP-92 NSCLC
HS 578T breast = system: HS 578T breast
HT29 colon = system: HT29 colon
IGROV1 ovarian = system: IGROV1 ovarian
K-562 leukemia = system: K-562 leukemia
KM12 colon = system: KM12 colon
LOX IMVI melanoma = system: LOX IMVI melanoma
M14 melanoma = system: M14 melanoma
MALME-3M melanoma = system: MALME-3M melanoma
MCF7 breast = system: MCF7 breast
MDA-MB-231 breast = system: MDA-MB-231 breast
MDA-MB-435 = system: MDA-MB-435
MOLT-4 leukemia = system: MOLT-4 leukemia
NCI-H226 lung = system: NCI-H226 lung
NCI-H23 lung = system: NCI-H23 lung
NCI-H460 lung = system: NCI-H460 lung
NCI-H522 lung = system: NCI-H522 lung
NCI/ADR-RES ovarian = system: NCI/ADR-RES ovarian
OVCAR-3 ovarian = system: OVCAR-3 ovarian
OVCAR-4 ovarian = system: OVCAR-4 ovarian
OVCAR-5 ovarian = system: OVCAR-5 ovarian
OVCAR-8 ovarian = system: OVCAR-8 ovarian
PC-3 prostate = system: PC-3 prostate
RPMI-8226 leukemia = system: RPMI-8226 leukemia
RXF 393 renal = system: RXF 393 renal
SF-268 CNS = system: SF-268 CNS
SF-295 CNS = system: SF-295 CNS
SF-539 CNS = system: SF-539 CNS
SK-MEL-2 melanoma = system: SK-MEL-2 melanoma
SK-MEL-28 melanoma = system: SK-MEL-28 melanoma
SK-MEL-5 melanoma = system: SK-MEL-5 melanoma
SK-OV-3 ovarian = system: SK-OV-3 ovarian
SN12C renal = system: SN12C renal
SNB-19 CNS = system: SNB-19 CNS
SNB-75 CNS = system: SNB-75 CNS
SR leukemia = system: SR leukemia
SW-620 colon = system: SW-620 colon
T-47D breast = system: T-47D breast
TK-10 renal = system: TK-10 renal
U251 CNS = system: U251 CNS
UACC-257 melanoma = system: UACC-257 melanoma
UACC-62 melanoma = system: UACC-62 melanoma
UO-31 renal = system: UO-31 renal

Molecule `COc1ccc(/C=C/C(=O)c2cccc(B(O)O)c2)cc1O` has a GI50 (786-0 renal) of 4.33 µM, a TGI (786-0 renal) of 40.8 µM and a GI50 (A498 renal) of 2.31 µM. It also gave a TGI (A498 renal) of 11.2 µM, a GI50 (A549 NSCLC) of 3.35 µM and a TGI (A549 NSCLC) of 46.9 µM. For the same molecule, the GI50 (ACHN renal) was 4.59 µM, the TGI (ACHN renal) was 71.1 µM and the GI50 (BT-549 breast) was 2.82 µM. It also gave a TGI (BT-549 breast) of 14.2 µM, a GI50 (CAKI-1 renal) of 3.43 µM and a TGI (CAKI-1 renal) of 19.3 µM. For the same molecule, the GI50 (CCRF-CEM leukemia) was 3.13 µM, the TGI (CCRF-CEM leukemia) was 14.1 µM and the GI50 (COLO 205 colon) was 13 µM. It also gave a TGI (COLO 205 colon) of 27.5 µM, a GI50 (DU-145 prostate) of 2.8 µM and a TGI (DU-145 prostate) of 7.88 µM. The GI50 (HCC-2998 colon) was 2.67 µM, the TGI (HCC-2998 colon) was 7.47 µM and the GI50 (HCT-116 colon) was 2.55 µM. It also gave a TGI (HCT-116 colon) of 10.7 µM, a GI50 (HCT-15 colon) of 2.44 µM and a TGI (HCT-15 colon) of 12.3 µM. For the same molecule, the GI50 (HOP-62 NSCLC) was 4.24 µM, the TGI (HOP-62 NSCLC) was 18.6 µM and the GI50 (HOP-92 NSCLC) was 1.42 µM. For the same molecule, the TGI (HOP-92 NSCLC) was 29.7 µM, the GI50 (HS 578T breast) was 2.28 µM and the TGI (HS 578T breast) was 8.87 µM. It also gave a GI50 (HT29 colon) of 9.77 µM, a TGI (HT29 colon) of 44.4 µM and a GI50 (IGROV1 ovarian) of 5.39 µM. For the same molecule, the TGI (IGROV1 ovarian) was 33 µM, the GI50 (K-562 leukemia) was 1.33 µM and the TGI (K-562 leukemia) was over 100 µM. The GI50 (KM12 colon) was 2.51 µM, the TGI (KM12 colon) was 6.47 µM and the GI50 (LOX IMVI melanoma) was 2.07 µM. The TGI (LOX IMVI melanoma) was 5.37 µM, the GI50 (M14 melanoma) was 4.23 µM and the TGI (M14 melanoma) was 18.6 µM. For the same molecule, the GI50 (MALME-3M melanoma) was 15.3 µM, the TGI (MALME-3M melanoma) was 32.1 µM and the GI50 (MCF7 breast) was 2.21 µM. For the same molecule, the TGI (MCF7 breast) was 12.4 µM, the GI50 (MDA-MB-231 breast) was 3.44 µM and the TGI (MDA-MB-231 breast) was over 100 µM. For the same molecule, the GI50 (MDA-MB-435) was 1.89 µM, the TGI (MDA-MB-435) was 4.57 µM and the GI50 (MOLT-4 leukemia) was 4.04 µM. For the same molecule, the TGI (MOLT-4 leukemia) was over 100 µM, the GI50 (NCI-H226 lung) was 4.79 µM and the TGI (NCI-H226 lung) was over 100 µM. The GI50 (NCI-H23 lung) was 4.67 µM, the TGI (NCI-H23 lung) was 22.7 µM and the GI50 (NCI-H460 lung) was 3.11 µM. For the same molecule, the TGI (NCI-H460 lung) was 11.5 µM, the GI50 (NCI-H522 lung) was 3.33 µM and the TGI (NCI-H522 lung) was 13.5 µM. The GI50 (NCI/ADR-RES ovarian) was 3.09 µM, the TGI (NCI/ADR-RES ovarian) was 28.6 µM and the GI50 (OVCAR-3 ovarian) was 3.44 µM. The TGI (OVCAR-3 ovarian) was 10.9 µM, the GI50 (OVCAR-4 ovarian) was 7.91 µM and the TGI (OVCAR-4 ovarian) was 21 µM. It also gave a GI50 (OVCAR-5 ovarian) of 9.25 µM, a TGI (OVCAR-5 ovarian) of 31.6 µM and a GI50 (OVCAR-8 ovarian) of 3.82 µM. It also gave a TGI (OVCAR-8 ovarian) of over 100 µM, a GI50 (PC-3 prostate) of 6.18 µM and a TGI (PC-3 prostate) of 32.9 µM. The GI50 (RPMI-8226 leukemia) was 3.39 µM, the TGI (RPMI-8226 leukemia) was 33.3 µM and the GI50 (RXF 393 renal) was 2.8 µM. The TGI (RXF 393 renal) was 11.4 µM, the GI50 (SF-268 CNS) was 3.46 µM and the TGI (SF-268 CNS) was 19.9 µM. The GI50 (SF-295 CNS) was 3.17 µM, the TGI (SF-295 CNS) was 13.2 µM and the GI50 (SF-539 CNS) was 2.4 µM. The TGI (SF-539 CNS) was 8.46 µM, the GI50 (SK-MEL-2 melanoma) was 15.6 µM and the TGI (SK-MEL-2 melanoma) was 58.9 µM. It also gave a GI50 (SK-MEL-28 melanoma) of 6.72 µM, a TGI (SK-MEL-28 melanoma) of over 100 µM and a GI50 (SK-MEL-5 melanoma) of 3.76 µM. The TGI (SK-MEL-5 melanoma) was 14.9 µM, the GI50 (SK-OV-3 ovarian) was 6.14 µM and the TGI (SK-OV-3 ovarian) was over 100 µM. For the same molecule, the GI50 (SN12C renal) was 3.26 µM, the TGI (SN12C renal) was 25.7 µM and the GI50 (SNB-19 CNS) was 5.1 µM. For the same molecule, the TGI (SNB-19 CNS) was 27.3 µM, the GI50 (SNB-75 CNS) was 2.74 µM and the TGI (SNB-75 CNS) was 12.2 µM. It also gave a GI50 (SR leukemia) of 2.56 µM, a TGI (SR leukemia) of 30.3 µM and a GI50 (SW-620 colon) of 2.79 µM. It also gave a TGI (SW-620 colon) of 11.5 µM, a GI50 (T-47D breast) of 3.01 µM and a TGI (T-47D breast) of 16 µM. The GI50 (TK-10 renal) was 4.4 µM, the TGI (TK-10 renal) was 24.1 µM and the GI50 (U251 CNS) was 3.41 µM. The TGI (U251 CNS) was 13.2 µM, the GI50 (UACC-257 melanoma) was 10.6 µM and the TGI (UACC-257 melanoma) was 30.9 µM. The GI50 (UACC-62 melanoma) was 3.83 µM, the TGI (UACC-62 melanoma) was 17.3 µM and the GI50 (UO-31 renal) was 3.63 µM. It also gave a TGI (UO-31 renal) of 17.4 µM.
